What all share (assay): NCI tumour cell line growth inhibition, 48 h
The subject of assay [1] is K-562 leukemia.
In assay [2] the test system is SN12C renal.
The subject of assay [3] is UACC-62 melanoma.
The test system of assay [4] is 786-0 renal.
For assay [5], the system named is NCI-H23 lung.
The test system of assay [6] is UO-31 renal.
For assay [7], the system named is SK-OV-3 ovarian.
Assay [8] has as its system MDA-MB-231 breast.
Assay [9] has as its system SK-MEL-2 melanoma.
Assay [10] deals with ACHN renal.

In PubChem BioAssay (NCI) one finds GI50 and TGI data, which are given here for 14 molecules.

Values joined by “and” are separate entries in the source; they are usually repeats but may differ in a detail not shown here. Identical values can stand only once.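 96-well plates; 48 h exposure; 5 concentrations. Endpoints by linear interpolation between flanking doses. Not reached: highest tested concentration assigned. GI50 marks 50% less growth. TGI: total growth inhibition.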

Turning to `O=C(Nc1ccc(OS(=O)(=O)c2ccc(F)cc2)cc1)C12CC3CC(CC(C3)C1)C2`, the GI50 in assay [1] is 0.319 µM; in [2] it was over 43.6 µM; in [3], 6.44 µM; in [4] it was 8.33 µM; in assay [5], 10.1 µM; in assay [6] it was 6.21 µM. For the same molecule, the GI50 was 10.3 µM in assay [7], 4.58 µM in assay [8], 12.9 µM in [9] and 14.6 µM in assay [10]. The TGI was over 100 µM in assay [1]; over 100 µM in assay [2]; over 65 µM in assay [3]; 44.5 µM in assay [4]; over 100 µM in assay [5]; over 100 µM in [6]. The TGI in assay [7] is 47.3 µM; in assay [8] it was 52.7 µM; in assay [9], 39.3 µM; in [10], over 100 µM.

In the case of `CC/C=C\C[C@H]1C/C=C2/C(=O)C=C[C@H]2C/C=C\CCCC(=O)O1`, the GI50 in assay [1] was 1.89 µM; in assay [2] it was 2.62 µM; in assay [3], 1.78 µM; in assay [4], 3.24 µM; in assay [5], 2.15 µM; in assay [6], 4.87 µM. The GI50 is 5.67 µM in [7], 3.23 µM in assay [8], 3.77 µM in assay [9] and 1.39 µM in [10]. For the same molecule, the TGI is over 50 µM in [1]; over 50 µM in [2]; 7.94 µM in [3]; 10.2 µM in [4]; 9.92 µM in assay [5]; 11.2 µM in [6]. Besides, the TGI in assay [7] worked out at 13.1 µM; in assay [8], 14.8 µM; in [9], 12.6 µM; in assay [10], 3.97 µM.

With `Cc1c2cnccc2c(C)c2c1c1cc(O)ccc1n2C(C)C`, the GI50 was 1.02 µM in assay [1]; 0.647 µM in assay [2]; 1.37 µM in [3]; 1.7 µM in assay [4]; 0.721 µM in assay [5]; 0.785 µM in assay [6]. The GI50 in assay [7] is 0.709 µM; in assay [8], 1.51 µM; in assay [9], 0.797 µM; in assay [10] it was 0.285 µM. The TGI in assay [1] is 5.6 µM; in assay [2] it was 6.06 µM; in assay [3] it was 4.28 µM; in assay [4], 4.53 µM; in assay [5], 3.83 µM; in [6], 5.21 µM. Also, the TGI in [7] came to 5.55 µM; in assay [8], 7.58 µM; in assay [9], 2.58 µM; in [10], 1.77 µM.

For `O=C(O)C1C2C=CC(O2)C1C(=O)NCc1cccnc1` (centres undefined), the TGI in assay [1], in assay [2], in assay [3], in [4], in [5] and in [6] was over 100 µM in each case. Further, the TGI in assay [7], in [8], in assay [9] and in [10] was over 100 µM in each case.

Consider `COc1ccc(C(=O)/C=C/c2sc(Cl)nc2Cl)cc1`, for which the GI50 in [1] was 0.328 µM; in [2] it was 0.408 µM; in assay [3], 2.22 µM; in [4], 1.94 µM; in assay [5] it was 0.973 µM; in [6] it was 1.45 µM. The GI50 in [7] was 7.68 µM; in assay [8] it was 1.33 µM; in [9], 11.1 µM; in assay [10], 1.66 µM. Also, the TGI was over 100 µM in assay [1]; 3.19 µM in assay [2]; 6.19 µM in assay [3]; 4.94 µM in [4]; 3.39 µM in [5]; 2.9 µM in [6]. Moreover, the TGI was found to be 23.7 µM in assay [7], 4.64 µM in assay [8], 35.5 µM in assay [9] and 3.05 µM in [10].

In the case of `Cc1cccc(C(C)(C)C)c1NC(=O)C(C#N)C1=C(Cl)C(=O)c2ccccc2C1=O` (centres undefined), the TGI in assay [1] came out at 10.2 µM; in assay [2], 31.5 µM; in assay [3], 32.5 µM; in assay [4] it was 30 µM; in assay [5], 30.2 µM; in assay [6] it was 27.9 µM. Moreover, the TGI in assay [7] came to 40.2 µM; in assay [8] it was 27.3 µM; in assay [9] it was 30.7 µM; in assay [10], 27.6 µM.

Turning to `N#C/C(=C\c1ccc(O)c(O)c1)C(=O)NCc1ccc(C(F)(F)F)cc1`, the GI50 is 9.91 µM in [1]; 4.06 µM in assay [2]; 4.25 µM in assay [3]; 18.4 µM in [4]; 4.54 µM in assay [5]; 4.62 µM in [6]. The results for the GI50 in [7], in assay [8] and in assay [10] were 16.6 µM, 2.08 µM and 6.14 µM, respectively. Further, the TGI in assay [1] is over 83.6 µM; in [2], 18.8 µM; in [3], 13.9 µM; in assay [4] it was 37.5 µM; in [5], 18.5 µM; in assay [6] it was 18 µM. Also, the TGI in assay [7] stood at 61.4 µM; in [8], 18.1 µM; in assay [9], 6.34 µM; in assay [10], 23.9 µM.

For the molecule `Cc1cc(=O)oc2c(C3=NN(C=O)C(c4ccccc4)C3)c(O)ccc12` (centres undefined), the TGI in assay [1] was over 100 µM; in assay [2], over 100 µM; in assay [3] it was over 100 µM; in assay [4], 81.4 µM; in [5], over 100 µM; in assay [6], over 100 µM. The TGI in assay [7] was 48.2 µM; in assay [8], over 100 µM; in assay [9], over 100 µM; in assay [10] it was over 42.8 µM.

Regarding `C[C@@H](O)[C@@H](C)Oc1nc(Nc2ccc(S(=N)(=O)C3CC3)cc2)ncc1C(F)(F)F` (some centres undefined), the GI50 in [1] is 0.0425 µM; in assay [2], 0.0342 µM; in [3], 0.0249 µM; in assay [4] it was 0.0352 µM; in assay [5] it was 0.0322 µM; in [6] it was 0.0239 µM. In addition, the GI50 in assay [7] was 0.0891 µM; in assay [8], 0.0336 µM; in assay [9] it was 0.0219 µM; in assay [10], 0.0261 µM. For the same molecule, the TGI in assay [1] is over 100 µM; in [2], over 100 µM; in [3], 0.0931 µM; in assay [4] it was 17.8 µM; in assay [5], 0.318 µM; in [6] it was 0.0895 µM. The TGI in assay [7] was over 100 µM; in assay [8] it was over 100 µM; in assay [9], 0.0621 µM; in assay [10], over 100 µM.

On to `N#Cc1ncc(C(Cl)Cl)nc1Cl`, for which the TGI in [1] is over 7.1 µM; in assay [2], 3.79 µM; in assay [3], 5.9 µM; in assay [4], 3.16 µM; in assay [5], 5.94 µM; in assay [6], 3.17 µM. Further, the TGI is over 10 µM in assay [7], 3.17 µM in [8], 4.33 µM in assay [9] and 4.32 µM in [10].

As to `O=CC(OC(=O)c1ccccc1)C(OC(=O)c1ccccc1)C(COC(c1ccccc1)(c1ccccc1)c1ccccc1)OC(=O)c1ccccc1` (centres undefined), the GI50 in assay [1] is 8.09 µM; in assay [2], 17.4 µM; in assay [3] it was 14.5 µM; in [4] it was 20 µM; in [5], 15.4 µM; in [6], 10.8 µM. Also, the GI50 is 21.3 µM in [7], 21.6 µM in assay [8], 18.4 µM in assay [9] and 11.4 µM in [10]. Also, the TGI in assay [1] was 27.4 µM; in assay [2], 47.9 µM; in [3], 44.1 µM; in [4] it was 41 µM; in assay [5], 34.6 µM; in assay [6], 31.2 µM. For the same molecule, the TGI is 48.2 µM in assay [7], over 100 µM in assay [8], 50.4 µM in [9] and 24 µM in assay [10].

As to `Cc1cc2c(cc1Cl)SC(N(c1ccccc1Cl)S(=O)(=O)c1ccc(Br)s1)=NS2(=O)=O`, the GI50 in [1] was 18.7 µM; in assay [2] it was 19.5 µM; in assay [3], 20.3 µM; in assay [4], 30 µM; in assay [5], 19.9 µM; in assay [6], 19.9 µM. In addition, the GI50 in assay [7] is 24.8 µM; in assay [8], 18.5 µM; in assay [9], 12.8 µM; in [10] it was 22.4 µM. Besides, the TGI in assay [1] was 54.6 µM; in assay [2] it was 48.7 µM; in assay [3] it was 68.4 µM; in [4], over 100 µM; in [5] it was 56.4 µM; in assay [6] it was 62 µM. Besides, the TGI in [7] was over 100 µM; in assay [8], 61.8 µM; in [9] it was 43.7 µM; in assay [10] it was 84.7 µM.

Consider `COc1cc2c(Oc3ccc(NC(=O)C4(C(=O)Nc5ccc(F)cc5)CC4)cc3F)ccnc2cc1OCCCN1CCOCC1`, for which the GI50 in [1] was 0.102 µM and 0.15 µM; in [2], 0.266 µM and 0.259 µM; in [3], 1.24 µM and 0.891 µM; in assay [4] it was 1.61 µM and 1.54 µM; in assay [5] it was 0.383 µM and 0.511 µM; in assay [6], 0.984 µM and 0.654 µM. The GI50 in assay [7] is 1.81 µM and 1.88 µM; in assay [8], 1.33 µM and 1.28 µM; in assay [9], 1.44 µM and 1.63 µM; in assay [10] it was 0.558 µM and 0.702 µM. Moreover, the TGI in [1] was 1.78 µM and 1.33 µM; in [2], 13.3 µM and > 10 µM; in [3], 2.72 µM and 2.48 µM; in assay [4] it was 3.11 µM and 2.99 µM; in assay [5] it was 2.41 µM and > 10 µM; in [6] it was 2.61 µM and 2.04 µM. The TGI was 3.94 µM and 5.53 µM in [7]; 2.72 µM and 2.74 µM in [8]; 2.93 µM and 3.74 µM in [9]; 2.33 µM and 3.27 µM in assay [10].

As to `Cc1nnc(C[C@@H]2C=C(c3ccc(Cl)cc3)c3ccccc3-n3c(C)nnc32)o1`, the GI50 is 0.809 µM in [1]; 12 µM in assay [2]; 0.118 µM in [3]; 1.04 µM in [4]; 1.51 µM in assay [5]; 0.0739 µM in assay [6]. For the same molecule, the GI50 in assay [7] was 0.262 µM; in assay [8] it was 1.5 µM; in assay [9], 10.2 µM; in assay [10] it was 1.25 µM. For the same molecule, the TGI in assay [1] is over 100 µM; in [2], over 100 µM; in assay [3], 18.9 µM; in assay [4], 38.7 µM; in assay [5], 96.9 µM; in [6], 44.4 µM. Further, the TGI in [7] is 12 µM; in assay [8], over 100 µM; in [9], 47.6 µM; in [10], over 100 µM.
